According to patent US9290451B2 (Hoffmann-La Roche Inc., priority 2011, dated 2016):

Key:
human CB1 receptors = human CB1 receptors (Homo sapiens (Human), UniProt P21554); assay: cAMP assay, CHO cells expressing human CB1 receptors; type: cell-based; details: CHO cells expressing human CB1, cAMP; read-out: human CB1 EC50
Protocol: (§1) CHO cells expressing human CB1 or CB2 receptors are seeded 17-24 hours prior to the experiment 50.000 cells per well in a black 96 well plate with flat clear bottom (Corning Costar #3904) in DMEM (Invitrogen No. 31331), 1×HT supplement, with 10% fetal calf serum and incubated at 5% CO2 and 37° C. in a humidified incubator. The growth medium was exchanged with Krebs Ringer Bicarbonate buffer with 1 mM IBMX and incubated at 30° C. for 30 min Compounds were added to a final assay volume of 100 μl and incubated for 30 min at 30° C. Using the cAMP-Nano-TRF detection kit the assay (Roche Diagnostics) was stopped by the addition of 50 μl lysis reagent (Tris, NaCl, 1.5% Triton X100, 2.5% NP40, 10% NaN3) and 50 μl detection solutions (20 μM mAb Alexa700-cAMP 1:1, and 48 μM Ruthenium-2-AHA-cAMP) and shaken for 2 h at room temperature. The time-resolved energy transfer is measured by a TRF reader (Evotec Technologies GmbH), equipped with a ND:YAG laser as excitation source. The plate is measured twice with the excitation at 355 nm and at the emission with a delay of 100 ns and a gate of 100 ns, total exposure time 10 s at 730 (bandwidth 30 nm) or 645 nm (bandwidth 75 nm), respectively. The FRET signal is calculated as follows: FRET=T730-Alexa730-P(T645-B645) with P═Ru730-B730/Ru645-B645, where T730 is the test well measured at […], T645 is the test well measured at 645 nm, B730 and B645 are the buffer controls at 730 nm and 645 nm, respectively. cAMP content is determined from the function of a standard curve spanning from 10 μM to 0.13 nM cAMP.
(§2) EC50 values were determined using Activity Base analysis (ID Business Solution, Limited). The EC50 values for a wide range of cannabinoid agonists generated from this assay for reference compounds were in agreement with the values published in the scientific literature.

human CB2 receptors = human CB2 receptors (Homo sapiens (Human), UniProt P34972); assay: cAMP assay, CHO cells expressing human CB2 receptors; type: cell-based; details: CHO cells expressing human CB2, cAMP; read-out: human CB2 EC50
Chain of human CB2 receptors (P34972 whole entry): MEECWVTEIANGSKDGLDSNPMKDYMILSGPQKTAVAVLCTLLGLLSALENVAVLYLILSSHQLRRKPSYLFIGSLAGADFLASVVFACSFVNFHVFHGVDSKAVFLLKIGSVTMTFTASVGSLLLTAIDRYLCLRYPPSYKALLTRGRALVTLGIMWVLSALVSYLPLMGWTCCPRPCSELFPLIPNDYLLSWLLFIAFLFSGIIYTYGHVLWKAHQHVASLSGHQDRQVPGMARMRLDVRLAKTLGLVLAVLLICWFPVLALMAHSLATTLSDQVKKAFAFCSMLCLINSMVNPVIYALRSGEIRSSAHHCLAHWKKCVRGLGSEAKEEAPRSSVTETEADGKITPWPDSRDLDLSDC
Protocol: as §1, §2

Chain of human CB1 receptors (P21554 whole entry): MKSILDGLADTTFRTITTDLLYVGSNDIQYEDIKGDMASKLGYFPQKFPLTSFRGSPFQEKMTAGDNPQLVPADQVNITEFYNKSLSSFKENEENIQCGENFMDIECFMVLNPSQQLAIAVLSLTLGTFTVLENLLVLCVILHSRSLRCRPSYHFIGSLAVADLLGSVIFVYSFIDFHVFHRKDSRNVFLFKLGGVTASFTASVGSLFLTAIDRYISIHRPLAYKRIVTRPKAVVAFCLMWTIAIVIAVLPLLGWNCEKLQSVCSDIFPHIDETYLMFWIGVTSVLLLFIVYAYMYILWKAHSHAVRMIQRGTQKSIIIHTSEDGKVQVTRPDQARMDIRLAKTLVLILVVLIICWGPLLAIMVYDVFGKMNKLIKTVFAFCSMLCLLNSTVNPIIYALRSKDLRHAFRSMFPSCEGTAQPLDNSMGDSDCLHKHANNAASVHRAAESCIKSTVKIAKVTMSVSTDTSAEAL

Row | SMILES | EC50 (human CB1 receptors) [µM] | EC50 (human CB2 receptors) [µM]
1 | Cc1ccc(C(=O)N[C@@H](CC(C)C)c2nccs2)nc1OCC1CC1 [Example 64, 6-Cyclopropylmethoxy-5-methyl-pyridine-2-carboxylic acid ((S)-3-methyl-1-thiazol-2-yl-butyl)-amide] | 1.46 | 0.0189
2 | Cc1ccc(C(=O)N[C@@H](CC2CC2)c2nccs2)nc1OCC1CC1 [Example 65, 6-Cyclopropylmethoxy-5-methyl-pyridine-2-carboxylic acid ((S)-2-cyclopropyl-1-thiazol-2-yl-ethyl)-amide] | > 10 | 0.0338
3 | O=C(NN1CCCCC1)c1ccc(Cl)c(-c2cccc(Cl)c2)n1 [Example 66, 5-Chloro-6-(3-chloro-phenyl)-pyridine-2-carboxylic acid piperidin-1-ylamide] | > 10 | 0.216
4 | CNC(=O)C(C)(C)NC(=O)c1ccc(C2CC2)c(-c2cccc(Cl)c2)n1 [Example 67, 6-(3-Chloro-phenyl)-5-cyclopropyl-pyridine-2-carboxylic acid (1-methyl-1-methylcarbamoyl-ethyl)-amide] | > 10 | 0.797
5 | O=C(NN1CCCCC1)c1cccc(OCC2CC2)n1 [Example 68, 6-Cyclopropylmethoxy-pyridine-2-carboxylic acid piperidin-1-ylamide] | > 10 | 0.429
6 | CC(C)(NC(=O)c1ccc(N2CC(F)(F)C2)c(OCC2CC2)n1)c1nccs1 [Example 69, 6-Cyclopropylmethoxy-5-(3,3-difluoro-azetidin-1-yl)-pyridine-2-carboxylic acid (1-methyl-1-thiazol-2-yl-ethyl)-amide] | 0.38 | 0.006
7 | CCC(CC)(NC(=O)c1ccc(C)c(-c2cccc(Cl)c2)n1)C(=O)NC [Example 70, 6-(3-Chloro-phenyl)-5-methyl-pyridine-2-carboxylic acid (1-ethyl-1-methylcarbamoyl-propyl)-amide] | > 10 | 0.0574
8 | CCC(CC)(NC(=O)c1ccc(C2CC2)c(-c2cccc(Cl)c2)n1)C(=O)NC [Example 71, 6-(3-Chloro-phenyl)-5-cyclopropyl-pyridine-2-carboxylic acid (1-ethyl-1-methylcarbamoyl-propyl)-amide] | > 10 | 0.0612
9 | CC(C)(NC(=O)c1cccc(-c2cccc(Cl)c2)n1)c1ncon1 [Example 72, 6-(3-Chloro-phenyl)-pyridine-2-carboxylic acid (1-methyl-1-[1,2,4]oxadiazol-3-yl-ethyl)-amide] | > 10 | 0.0328
10 | CC(C)(NC(=O)c1ccc(C2CC2)c(OCC2CC2)n1)c1ncon1 [Example 73, 5-Cyclopropyl-6-cyclopropylmethoxy-pyridine-2-carboxylic acid (1-methyl-1-[1,2,4]oxadiazol-3-yl-ethyl)-amide] | 1.32 | 0.0407
11 | CCC(CC)(NC(=O)c1ccc(C2CC2)c(OCC2CC2)n1)C(=O)NC [Example 74, 5-Cyclopropyl-6-cyclopropylmethoxy-pyridine-2-carboxylic acid (1-ethyl-1-methylcarbamoyl-propyl)-amide] | > 10 | 0.0089
12 | CC(C)(NC(=O)c1ccc(N2CC(O)C2)c(OCC2CC2)n1)c1nccs1 [Example 75, 6-Cyclopropylmethoxy-5-(3-hydroxy-azetidin-1-yl)-pyridine-2-carboxylic acid (1-methyl-1-thiazol-2-yl-ethyl)-amide] | > 10 | 0.0152
13 | CCC(CC)(NC(=O)c1cccc(-c2ccc(Cl)cc2)n1)C(=O)NC [Example 76, 6-(4-Chloro-phenyl)-pyridine-2-carboxylic acid (1-ethyl-1-methylcarbamoyl-propyl)-amide] | > 10 | 0.185
14 | CC(C)(NC(=O)c1ccc(N2CCCS2(=O)=O)c(OCC2CC2)n1)c1nccs1 [Example 77, 6-(Cyclopropylmethoxy)-5-(1,1-dioxido-isothiazolidin-2-yl)-N-[2-(1,3-thiazol-2-yl)propan-2-yl]pyridine-2-carboxamide] | > 10 | 1.4
15 | CCC(CC)(NC(=O)c1ccc(N2CCC(F)(F)C2)c(OCC2CC2)n1)C(=O)NC [Example 78, 6-Cyclopropylmethoxy-5-(3,3-difluoro-pyrrolidin-1-yl)-pyridine-2-carboxylic acid (1-ethyl-1-methylcarbamoyl-propyl)-amide] | > 10 | 0.0046
16 | O=C(c1ccc(N2CCC(F)(F)C2)c(OCC2CC2)n1)N1CCS(=O)(=O)CC1 [Example 79] | > 10 | 2.04
17 | CNC(=O)C(C)(C)NC(=O)c1ccc(N2CCC(F)(F)C2)c(OCC2CC2)n1 [Example 80, 6-Cyclopropylmethoxy-5-(3,3-difluoro-pyrrolidin-1-yl)-pyridine-2-carboxylic acid (1-methyl-1-methylcarbamoyl-ethyl)-amide] | 0.0058 | 0.134
18 | CCC(CC)(NC(=O)c1ccc(OC)c(-c2cccc(Cl)c2)n1)C(=O)NC [Example 81, 6-(3-Chloro-phenyl)-5-methoxy-pyridine-2-carboxylic acid (1-ethyl-1-methylcarbamoyl-propyl)-amide] | > 10 | 0.417
19 | COc1ccc(C(=O)NC(C)(C)c2nccs2)nc1-c1cccc(Cl)c1 [Example 82, 6-(3-Chloro-phenyl)-5-methoxy-pyridine-2-carboxylic acid (1-methyl-1-thiazol-2-yl-ethyl)-amide] | 2.29 | 0.14
20 | CC(C)(NC(=O)c1ccc(Cl)c(OCC2CC2)n1)c1ncon1 [Example 83, 5-Chloro-6-cyclopropylmethoxy-pyridine-2-carboxylic acid (1-methyl-1-[1,2,4]oxadiazol-3-yl-ethyl)-amide] | > 10 | 0.347
21 | O=C(NC1CCCCC1O)c1cccc(C2CCCCC2)n1 (centres unmarked) [Example 84, 6-Cyclohexyl-pyridine-2-carboxylic acid (2-hydroxy-cyclohexyl)-amide] | > 10 | 0.292
22 | CCC(CC)(NC(=O)c1ccc(C2CCOCC2)c(OCC2CC2)n1)C(=O)NC [Example 85, 6-Cyclopropylmethoxy-5-(tetrahydro-pyran-4-yl)-pyridine-2-carboxylic acid (1-ethyl-1-methylcarbamoyl-propyl)-amide] | > 10 | 0.186
23 | CCC(CC)(NC(=O)c1ccc(N2CC(F)(F)C2)c(OCC2CC2)n1)C(=O)NC [Example 86, 6-Cyclopropylmethoxy-5-(3,3-difluoro-azetidin-1-yl)-pyridine-2-carboxylic acid (1-ethyl-1-methylcarbamoyl-propyl)-amide] | > 10 | 0.0331
24 | CNC(=O)C(C)(C)NC(=O)c1ccc(N2CC(F)(F)C2)c(OCC2CC2)n1 [Example 87, 6-Cyclopropylmethoxy-5-(3,3-difluoro-azetidin-1-yl)-pyridine-2-carboxylic acid (1-methyl-1-methylcarbamoyl-ethyl)-amide] | > 10 | 0.476
25 | CC(C)(NC(=O)c1ccc(Cl)c(-c2cccc(Cl)c2)n1)c1ncon1 [Example 88, 5-Chloro-6-(3-chloro-phenyl)-pyridine-2-carboxylic acid (1-methyl-1-[1,2,4]oxadiazol-3-yl-ethyl)-amide] | > 10 | 0.356
